Legend:
[1] = target: ATP-dependent translocase ABCB1 (Homo sapiens, UniProt P08183); test: (§1) Inhibition of human Pgp-mediated DNR transport in NIH3T3 cells by microplate assay; assay type: cell-based, Mus musculus
P-gp (ABCB1) = P-gp (ABCB1) (Homo sapiens, UniProt P08183); test: as §1; assay type: cell-based, Mus musculus; conditions: mouse, NIH3T3 cells expressing human P-gp, probe DNR; read-out: Imax
[2] = Partition coefficient, log P of the compound; assay type: physicochemical; conditions: octanol/water

Chain of ATP-dependent translocase ABCB1 (P08183 whole entry): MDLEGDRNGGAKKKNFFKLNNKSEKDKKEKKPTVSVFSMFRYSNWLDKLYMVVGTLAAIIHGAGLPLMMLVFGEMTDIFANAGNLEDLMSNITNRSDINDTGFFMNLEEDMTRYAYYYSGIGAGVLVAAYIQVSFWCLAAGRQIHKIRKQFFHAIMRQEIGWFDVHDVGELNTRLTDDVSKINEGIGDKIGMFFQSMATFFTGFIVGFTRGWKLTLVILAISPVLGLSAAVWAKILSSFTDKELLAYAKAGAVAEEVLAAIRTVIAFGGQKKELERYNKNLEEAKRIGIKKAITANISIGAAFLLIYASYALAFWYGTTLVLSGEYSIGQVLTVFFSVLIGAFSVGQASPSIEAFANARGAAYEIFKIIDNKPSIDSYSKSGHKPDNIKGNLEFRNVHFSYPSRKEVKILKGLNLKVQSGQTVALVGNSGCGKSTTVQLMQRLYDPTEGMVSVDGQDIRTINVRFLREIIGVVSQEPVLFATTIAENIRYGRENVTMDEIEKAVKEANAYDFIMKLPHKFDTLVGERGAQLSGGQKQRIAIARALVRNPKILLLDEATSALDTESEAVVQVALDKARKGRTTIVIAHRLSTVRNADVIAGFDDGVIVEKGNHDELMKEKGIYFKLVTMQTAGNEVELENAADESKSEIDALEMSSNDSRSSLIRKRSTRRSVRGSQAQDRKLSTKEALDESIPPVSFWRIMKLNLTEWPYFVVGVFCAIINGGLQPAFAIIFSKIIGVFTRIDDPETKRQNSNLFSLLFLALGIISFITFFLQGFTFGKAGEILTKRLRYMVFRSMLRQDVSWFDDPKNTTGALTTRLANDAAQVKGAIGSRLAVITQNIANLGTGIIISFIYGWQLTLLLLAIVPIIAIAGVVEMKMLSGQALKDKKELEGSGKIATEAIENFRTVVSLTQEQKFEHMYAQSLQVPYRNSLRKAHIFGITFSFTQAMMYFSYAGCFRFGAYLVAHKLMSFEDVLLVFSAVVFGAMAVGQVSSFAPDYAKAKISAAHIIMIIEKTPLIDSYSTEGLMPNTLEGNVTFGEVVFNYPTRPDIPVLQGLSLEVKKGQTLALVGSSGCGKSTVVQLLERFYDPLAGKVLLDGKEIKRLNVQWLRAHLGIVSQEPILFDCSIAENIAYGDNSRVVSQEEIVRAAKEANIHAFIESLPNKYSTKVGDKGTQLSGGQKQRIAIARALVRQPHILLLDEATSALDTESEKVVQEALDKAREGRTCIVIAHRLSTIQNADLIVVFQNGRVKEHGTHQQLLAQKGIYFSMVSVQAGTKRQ
Chain of P-gp (ABCB1) (P08183 whole entry): as above

Compound | Ki ([1]; read-out: Ki) [nM] | Emax (P-gp (ABCB1)) [%] | logP ([2]; read-out: LogP) | logP [2] | Ki ([1]; read-out: Log Ki (converted)) [nM]
CC(=O)O[C@@H]1[C@H](OC(C)=O)[C@@H](C)[C@@]23C[C@@H](C[C@H](OC(=O)/C=C/c4ccccc4)[C@]2(C)[C@H]1OC(=O)c1ccccc1)C(C)(C)O3 | 2720 | 75.8 | 7.4 |  | 
CC(=O)OC[C@]12[C@H](OC(C)=O)C(=O)[C@@H]3[C@@H](OC(C)=O)[C@]1(OC3(C)C)[C@H](C)C[C@H](OC(C)=O)[C@@H]2OC(=O)c1ccccc1 | 5740 | 96.4 | 6.1 |  | 
CCCCCCCCCCCC(=O)O[C@@H]1[C@H]2C[C@H](OC(=O)c3ccco3)[C@]3(C)[C@@H](OC(C)=O)[C@@H](OC(C)=O)C[C@@](C)(O)[C@@]13OC2(C)C | 800 | 72.7 |  | 9.1 | 
CC(=O)O[C@@H]1[C@H]2[C@@H](OC(=O)c3ccccc3)[C@@H](OC(=O)c3ccccc3)[C@]3(CO)[C@@H](OC(=O)c4ccccc4)[C@@H](OC(=O)c4ccccc4)C[C@@H](C)[C@@]13OC2(C)C | 1300 | 39.5 |  | 11.5 | 1660
CC(=O)O[C@@H]1C[C@@](C)(O)[C@@]23C[C@@H](C[C@H](OC(=O)/C=C/c4ccccc4)[C@]2(C)[C@H]1OC(=O)c1ccccc1)C(C)(C)O3 | 7610 | 100 | 6.5 |  | 
CC(=O)O[C@H]1[C@@H](OC(=O)c2ccccc2)C[C@@](C)(O)[C@]23OC(C)(C)[C@H](C[C@H](OC(=O)c4ccco4)[C@]12C)[C@H]3OC(=O)c1cccc2ccccc12 | 4590 | 54.8 |  | 9.6 | 
CC(=O)OC[C@]12[C@H](OC(=O)c3ccccc3)C(=O)[C@@H]3[C@@H](OC(C)=O)[C@]1(OC3(C)C)[C@](C)(O)C[C@H](OC(=O)c1ccccc1)[C@@H]2OC(=O)c1ccccc1 | 1030 | 80 |  | 10 | 
CC(=O)OC[C@]12[C@H](OC(=O)c3ccccc3)C(=O)[C@@H]3[C@@H](OC(C)=O)[C@]1(OC3(C)C)[C@](C)(O)C[C@H](OC(C)=O)[C@@H]2OC(=O)c1ccccc1 | 3010 | 81.1 | 7.7 |  | 
CC(=O)OC[C@]12[C@@H](OC(=O)c3ccccc3)[C@@H](OC(=O)c3ccccc3)[C@@H]3[C@@H](OC(C)=O)[C@]1(OC3(C)C)[C@H](C)C[C@H](OC(C)=O)[C@@H]2OC(C)=O | 1710 | 86.2 | 8.3 |  | 
CC(=O)OC[C@]12[C@H](OC(=O)c3ccccc3)[C@H](OC(=O)c3ccccc3)[C@@H]3[C@@H](OC(C)=O)[C@]1(OC3(C)C)[C@H](C)C[C@H](OC(=O)c1ccccc1)[C@@H]2OC(=O)c1ccccc1 | 1980 | 29.3 |  |  | 

Other lines, results leading:

Ki ([1]; read-out: Ki) [nM] | Emax (P-gp (ABCB1)) [%] | logP ([2]; read-out: LogP) | logP [2] | Ki ([1]; read-out: Log Ki (converted)) [nM] | Compound
12100 | 34 | 4.1 |  |  | CC(=O)O[C@H]1C[C@@](C)(O)[C@]23OC(C)(C)[C@H](C[C@H](OC(=O)c4ccco4)[C@]2(C)[C@H]1OC(C)=O)[C@H]3OC(=O)C(F)(F)F
1130 | 100 | 6.2 |  |  | CCCO[C@H]1C[C@@](C)(O)[C@]23OC(C)(C)[C@H](C[C@H](OC(=O)c4ccco4)[C@]2(C)[C@H]1OC(C)=O)[C@H]3OC(=O)c1ccco1
8940 | 67.9 | 6.1 |  |  | CC(=O)O[C@H]1C[C@@](C)(O)[C@]23OC(C)(C)[C@H](C[C@H](OC(=O)c4ccco4)[C@]2(C)[C@H]1OC(C)=O)[C@H]3OC(=O)c1ccccc1
1040 | 90 | 7.3 |  |  | CC(=O)O[C@H]1[C@@H](OC(=O)c2ccccc2)C[C@@](C)(O)[C@]23OC(C)(C)[C@H](C[C@H](OC(=O)c4ccco4)[C@]12C)[C@H]3OC(=O)C(C)(C)C
5530 | 41.2 | 4.7 |  |  | CC(=O)O[C@H]1[C@@H](OC(=O)c2ccco2)C[C@@](C)(O)[C@]23OC(C)(C)[C@H](C[C@H](OC(=O)c4ccco4)[C@]12C)[C@H]3O
100000 |  | 3.8 |  |  | CC(=O)O[C@H]1C[C@@](C)(O)[C@]23OC(C)(C)[C@H](C[C@H](OC(=O)c4ccco4)[C@]2(C)[C@H]1OC(C)=O)[C@H]3OC(C)=O

— ChEMBL document CHEMBL1148809, “Biological evaluation, structure-activity relationships, and three-dimensional quantitative structure-activity relationship studies of dihydro-beta-agarofuran sesquiterpenes as modulators of P-glycoprotein-dependent multidrug resistance” (J Med Chem, 2007)
